Reference: the supplement of paper PMC12137928
Counter-ions that a name gives are not always drawn.

Test system: HCT116
Details: 72 h
Outline: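 HCT116 cells were seeded at 250 per well in 1536-well plates and left 5 h to attach. CellTiter-Glo luminescence was scaled to vehicle (0%) and positive control (-100%), then pattern-corrected. IC50 and maximal efficacy came from four-parameter Hill fits.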

| IC50 cell viability (ICRF193 0 nM) [µM] | IC50 cell viability (ICRF193 200 nM) [µM] | Compound |
| --- | --- | --- |
| > 45.8 | > 45.8 | CC(=O)O[C@H]1CC[C@@]2(C)C(=CC[C@H]3[C@@H]4CC[C@H](C(C)=O)[C@@]4(C)CC[C@@H]32)C1 [Pregnenolone acetate] |
| > 45.8 | > 45.8 | CC(=O)[C@H]1CC[C@H]2[C@@H]3CC=C4C[C@@H](O)CC[C@]4(C)[C@H]3CC[C@]12C [Pregnenolone] |
| > 45.8 | > 45.8 | OC(CCN1CCCCC1)(c1ccccc1)c1ccccc1 [Pridinol] |
| > 45.8 | > 45.8 | CC[N+]1(CC)CCC(=C(c2ccccc2)c2ccccc2)C1C (stereo unspecified) [Prifinium bromide] |
| > 45.8 | > 45.8 | CCCNC(C)C(=O)Nc1ccccc1C (stereo unspecified) [Prilocaine hydrochloride] |
| > 45.8 | > 45.8 | CCC1(c2ccccc2)C(=O)NCNC1=O [Primidone] |
| > 45.8 | > 45.8 | CCCN(CCC)S(=O)(=O)c1ccc(C(=O)O)cc1 [Probenecid] |
| > 45.8 | > 45.8 | CC(C)(Sc1cc(C(C)(C)C)c(O)c(C(C)(C)C)c1)Sc1cc(C(C)(C)C)c(O)c(C(C)(C)C)c1 [Probucol] |
| > 45.8 | > 45.8 | CCN(CC)CCNC(=O)c1ccc(N)cc1 [Procainamide] |
| > 45.8 | > 45.8 | CNNCc1ccc(C(=O)NC(C)C)cc1 [Procarbazine hydrochloride] |
| > 45.8 | > 45.8 | CCC(NC(C)C)C(O)c1ccc(O)c2[nH]c(=O)ccc12 (stereo unspecified) [Procaterol] |
| > 45.8 | > 45.8 | OC(CCN1CCCC1)(c1ccccc1)C1CCCCC1 (stereo unspecified) [Procyclidine hydrochloride] |
| > 45.8 | > 45.8 | CCCN(CCC)C(=O)C(CCC(=O)O)NC(=O)c1ccccc1 (stereo unspecified) [Proglumide] |
| > 45.8 | > 45.8 | CC(C)NC(=N)NC(=N)Nc1ccc(Cl)cc1 [Proguanil hydrochloride] |
| > 45.8 | > 45.8 | CCCNCC(O)COc1ccccc1C(=O)CCc1ccccc1 (stereo unspecified) [Propafenone hydrochloride] |
| > 45.8 | > 45.8 | N=C(N)c1ccc(OCCCOc2ccc(C(=N)N)cc2)cc1 [Propamidine] |
| > 45.8 | > 45.8 | CC(C)[N+](C)(CCOC(=O)C1c2ccccc2Oc2ccccc21)C(C)C [Propantheline bromide] |
| > 45.8 | > 45.8 | CCCOc1ccc(C(=O)OCCN(CC)CC)cc1N [Proparacaine] |
| > 45.8 | > 45.8 | CCCn1cnc2c1c(=O)n(CCCCC(C)=O)c(=O)n2C [Propentofylline] |
| > 45.8 | > 45.8 | CCC(Oc1ccccc1)C(=O)N[C@@H]1C(=O)N2[C@@H]1SC(C)(C)[C@@H]2C(=O)O (stereo partly specified) [Propicillin] |
| > 45.8 | > 45.8 | CCCOC(=O)c1ccccc1 [Propyl benzoate] |
| > 45.8 | > 45.8 | CCCOC(=O)c1ccc(O)cc1 [Propyl-4-hydroxybenzoate] |
| > 45.8 | > 45.8 | CCCc1cc(=O)[nH]c(=S)[nH]1 [Propylthiouracil] |
| > 45.8 | > 45.8 | Cc1c(C(C)C)c(=O)n(-c2ccccc2)n1C [Propyphenazone] |
| > 45.8 | > 45.8 | CCCc1cc(C(N)=S)ccn1 [Protionamide] |
| > 45.8 | > 45.8 | CCC(c1ccccc1)c1noc(CCN(CC)CC)n1 (stereo unspecified) [Proxazole citrate] |

| Compound | IC50 cell viability (ICRF193 0 nM) [µM] | IC50 cell viability (ICRF193 200 nM) [µM] |
| --- | --- | --- |
| CC(C)c1cccc(C(C)C)c1O [Propofol] | > 45.8 | > 45.8 |
| CNC(C)CC1CCCCC1 (stereo unspecified) [Propylhexedrine (hydrochloride)] | > 45.8 | > 45.8 |
